This passage reports EC50 results from patent publication US9115129B2, “Substituted pyrido[2,3-B]pyrazines as IP receptor agonists” (Novartis AG, priority 2012, dated 2015).

By EC50 is commonly meant the concentration that produces a half-maximal response. A low value points to an effect from little substance.

T1 sequence (P43119 whole entry): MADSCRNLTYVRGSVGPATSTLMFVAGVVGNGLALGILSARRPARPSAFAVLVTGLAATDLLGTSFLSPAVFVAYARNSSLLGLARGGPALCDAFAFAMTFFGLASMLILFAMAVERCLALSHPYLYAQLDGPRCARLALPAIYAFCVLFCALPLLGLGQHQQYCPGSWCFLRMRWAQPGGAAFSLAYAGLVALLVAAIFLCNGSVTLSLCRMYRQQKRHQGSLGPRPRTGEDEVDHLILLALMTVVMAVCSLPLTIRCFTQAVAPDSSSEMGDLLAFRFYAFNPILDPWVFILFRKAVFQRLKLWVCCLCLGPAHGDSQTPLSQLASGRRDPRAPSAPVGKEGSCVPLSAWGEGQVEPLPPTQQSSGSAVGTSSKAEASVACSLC

This assay has as its target T1, IP receptor (Homo sapiens, UniProt P43119).
T1 construct: expressed in transfected cells; host or cells: CHO cells stably expressing the IP receptor (CHO-IP)
Nature of the assay: cAMP accumulation in CHO cells stably expressing the IP receptor (CHO-IP), Perkin Elmer AlphaScreen assay. The format is cell-based. The settings on record: agonist activity, 1 hour at room temperature. How it is done: Activity of compounds at the IP receptor (IP receptor) is assessed by measuring cAMP accumulation in CHO cells stably expressing the IP receptor (CHO-IP) using the Perkin Elmer AlphaScreen assay. This technology measures the endogenous production of cAMP, in a non-radioactive luminescence proximity homogenous assay. A biological reaction occurs between streptavidin coated donor beads, biotinylated cAMP and anti-cAMP acceptor beads, bringing the donor and acceptor beads close enough together so that upon excitation a fluorescence signal is produced. On production of endogenous cAMP, competition between the biotinylated cAMP and cellular-derived cAMP causes a reduction in the fluorescent signal. The reduction in signal is proportional to the amount of cAMP being produced, thus it is possible to quantify the amount of cAMP being produced on stimulation with agonist.
Test and reference compounds are prepared at 100× [final] in 100% DMSO, and diluted 1:3 using a Biomek Fx (Beckman Coulter). This is followed by an intermediate dilution to give 5× [final] in assay buffer (HBSS containing 5 mM HEPES, 0.1% (w/v) BSA). 5 μL of 5× [final] test compounds, reference compounds and buffer/DMSO control are then transferred to a 384-well white OptiPlate, containing 20 μL CHO-IP cell suspension (15,000 cells/well, prepared from frozen), and plate is incubated at room temperature for 1 hour. A cAMP standard curve is constructed for each experiment (concentration range of 10000 nM to 0.001 nM, in assay buffer) and 25 μL of each concentration added to the last two columns of the assay plate. The incubation is terminated by the addition of lysis buffer (dH2O; 0.3% (v v^−1) Tween-20) containing 20 units mL^−1 streptavidin coated donor beads and biotinylated cAMP (pre-incubated for 30 minutes) and 20 units mL^−1 anti-cAMP acceptor beads, which are added to the lysis buffer just before addition to the assay plate. The assay plate is then incubated at room temperature in the dark, for 60 minutes with gentle shaking, and read on the Envision plate reader (Perkin Elmer).
The raw data of the reference compounds, test compounds and controls are converted into cAMP concentrations, using the cAMP standard curve, in Graph Pad Prism (Graph Pad Software Inc). EC50 as well as maximal values of the agonist curves are determined using a 4-parameter logistic equation. The % maximum response values of all test compounds are determined using the top of the treprostinil concentration-response curve.
(Changes in cAMP serve as a functional read-out for many G protein-coupled receptors.)
`Cc1ccc(-c2nc3c(nc2-c2ccc(C)cc2)N(CCCCCCC(=O)NS(C)(=O)=O)CCC3O)cc1` (single isomer, unassigned) [Example 13.1, (R or S)-7-(8-Hydroxy-2,3-di-p-tolyl-7,8-dihydropyrido[3,2-b]pyrazin-5(6H)-yl)-N-(methylsulfonyl)heptanamide]: a half-maximal effect (EC50) was put at 28.6 nM.

Take `Cc1ccc(-c2nc3c(nc2-c2ccc(F)cc2)CCCN3CCCCCCC(=O)O)cc1` [Example 2.8, 7-(2-(4-Fluorophenyl)-3-p-tolyl-7,8-dihydropyrido[2,3-b]pyrazin-5(6H)-yl)heptanoic acid]: the response was half-maximal at 0.4 nM (EC50).

`Cc1ccc(-c2nc3c(nc2-c2ccc(C)cc2)N(CCCC[C@@H](O)CC(=O)O)CCC3)cc1` (single isomer, unassigned) [Example 17a, (R)-7-(2,3-Di-p-tolyl-7,8-dihydropyrido[2,3-b]pyrazin-5(6H)-yl)-3-hydroxyheptanoic acid or (S)-7-(2,3-Di-p-tolyl-7,8-dihydropyrido[2,3-b]pyrazin-5(6H)-yl)-3-hydroxyheptanoic acid] registered a concentration giving a half-maximal response (EC50) of 3.6 nM.

In turn, `Cc1ccc(-c2nc3c(nc2-c2ccc(C)cc2)N(CCCCCCC(=O)O)C(=O)C(O)C3)cc1` (single isomer, unassigned) [11(ii), (R)-7-(7-hydroxy-6-oxo-2,3-di-p-tolyl-7,8-dihydropyrido[2,3-b]pyrazin-5(6H)-yl) heptanoic acid or (S)-7-(7-hydroxy-6-oxo-2,3-di-p-tolyl-7,8-dihydropyrido[2,3-b]pyrazin-5(6H)-yl) heptanoic acid] showed an EC50 of 0.5 nM.

In turn, “(R)-6-(2,3-di-p-tolyl-5,6,7,8-tetrahydropyrido[2,3-b]pyrazin-6-yl)hexanoic acid or (S)-6-(2,3-di-p-tolyl-5,6,7,8-tetrahydropyrido[2,3-b]pyrazin-6-yl)hexanoic acid [1(i)]” gave an EC50 of 0.9 nM.

`Cc1ccc(-c2nc3c(nc2-c2ccc(C)cc2)N(CCCCCCC(=O)NS(C)(=O)=O)CCC3)cc1` [Example 13.4, 7-(2,3-Di-p-tolyl-7,8-dihydropyrido[2,3-b]pyrazin-5(6H)-yl)-N-(methylsulfonyl) heptanamide] returned an EC50 of 0.7 nM.
